# Experimental data: PMC12285270, “An antibiotic-free antimicrobial combination of bacteriocins and a peptidoglycan hydrolase: in vitro and in vivo assessment of its efficacy” (Applied and Environmental Microbiology, 2025)
# Ends that are not written are not given here.
# Tests used:
# [1] = tested on: normal human epidermal keratinocytes; conditions: cited from earlier work
# Description: (§1) Encouraged by the efficacy of the MP1/Nis/Aur combination in inhibiting S. aureus in the wound, we sought to examine the potential of the antimicrobial combination in treating mastitis, an infection often caused by S. aureus.
# [2] = tested on: HepG2 and THP-1 cell lines; conditions: cited from earlier work
# Description: as §1
# [3] = tested on: S. aureus Xen31 isolates Mut1 and Mut2; assay: Spot-on-lawn assay on isolates recovered from wounds; format: cell-based; conditions: for zone of inhibition compared to wild-type strain Xen31: both isolates Mut1 and Mut2, 2 µl of 1 mg/ml nisin A, 0.1 mg/ml MP1 and/or 0.1 mg/ml AuresinePlus spotted
# Description: Figure S9. Susceptibility of Xen31 mutants recovered from wounded mice. Spot-on-lawn assay using MP1 (M), Nis (N), Aur (A) or the tricomponent combination (MNA) comparing Xen31 WT with two resistant isolates recovered at day 7 PI from the back of wounded mice. Two µl of 1 mg/ml nisin A, 0.1 mg/ml MP1 and/or 0.1 mg/ml AuresinePlus were spotted.
# S. aureus Xen31 = conditions: formulation: 0.1 mg/mL MP1, 5 mg/mL garvicin KS, 5 mg/mL penicillin G in 5% hydropropylcellulose; cited from earlier work
# Description: (§2) The antimicrobial combinations of MP1, Nis, and AuresinePlus were additionally shown to be effective at eradicating S. aureus biofilms (Fig. 3B and C). This led us to assess the antimicrobial efficacy of the combination in vivo using a murine skin infection model. For infected mice treated with the combination, a reduction in the bioluminescence signal was observed throughout the experiment, except for two mice where a relapse of the infection occurred (see Discussion below, Fig. 4C).
# [4] = tested on: HT29 and Caco-2 cell lines; conditions: in vitro; cited from earlier work
# Description: as §1
# S. aureus = conditions: in vitro; cited from earlier work
# Description: As individual components, these antimicrobials probably have limited efficacy against S. aureus in wounds. AuresinePlus is an engineered PGH consisting of the catalytic domain of the S. aureus autolysin LytM and the SH3b cell wall-binding domain lysostaph ...
# S. aureus Xen36 = conditions: cited from earlier work
# Description: as §2
Substance,IC50 (midpoint cytotoxicity value) [1] [µg/mL],concentration above which growth is impaired [2],"sensitivity of isolate Mut2 ([3]; Mut2, 2 µl of 0.1 mg/ml MP1 spotted)",zone of inhibition compared to wild-type strain Xen31 [3],negative effects on the mice (S. aureus Xen31),IC50 (cytotoxicity) [4] [µg/mL],frequency of spontaneous mutations conferring high levels of nisin tolerance (S. aureus),effect on wound healing (S. aureus Xen36),"reduction in bacterial counts (S. aureus Xen36; skin wounds, nisin concentration comparable to this study) [log]"
Lysostaphin: large (>10 kDa) heat-labile bacteriolysin from S. simulans,16000,–,–,–,–,–,–,–,–
micrococcin P1 [MP1],–,above 0.03 mg/mL,insensitive,particularly reduced,no obvious negative effects on the mice,–,–,–,–
"nisin A (ITSISLCTPGCKTGALMGCNMKTATCHCSIHVSK; also: lantibiotic (lanthionine rings, dehydro residues) not placed; UniProt P13068 24-57, looked up) [lantibiotic bacteriocin; commercial fermentate from Sigma-Aldrich (N5764; 2.5% wt/wt nisin)]",–,–,–,particularly reduced,–,300 to 400,2 × 10^−7,no negative effects on wound healing,2
